Test results taken from patent publication US20160368898A1, “2-PYRIDYLOXY-4-METHYL OREXIN RECEPTOR ANTAGONISTS” (MERCK SHARP & DOHME CORP., priority 2013, published 2016).

Tests used:
[1] = molecular target: T1, human orexin-2 receptor (hOX2R) (Homo sapiens, UniProt O43614); experiment: FLIPR Ca2+ Flux Assay, CHO cells expressing the human orexin-2 receptor; format: cell-based; conditions: agonist 70 pM Ala-6,12 human orexin-A
T1 construct: expressed in transfected cells; host or cells: CHO cells (grown under G418)
T1 sequence (O43614 1-444): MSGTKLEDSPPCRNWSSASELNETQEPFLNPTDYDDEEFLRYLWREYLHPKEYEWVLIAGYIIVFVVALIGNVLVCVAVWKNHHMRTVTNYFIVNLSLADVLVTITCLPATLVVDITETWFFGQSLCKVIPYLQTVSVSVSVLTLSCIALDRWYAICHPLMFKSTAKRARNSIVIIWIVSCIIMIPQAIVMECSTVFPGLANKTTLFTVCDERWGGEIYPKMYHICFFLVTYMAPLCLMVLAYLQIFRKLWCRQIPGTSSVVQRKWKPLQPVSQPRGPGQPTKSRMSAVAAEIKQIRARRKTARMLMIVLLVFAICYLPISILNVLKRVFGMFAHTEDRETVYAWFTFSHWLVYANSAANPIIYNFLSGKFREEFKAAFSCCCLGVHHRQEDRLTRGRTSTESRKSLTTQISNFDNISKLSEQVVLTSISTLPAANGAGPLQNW
Procedure: The utility of the compounds in accordance with the present invention as orexin receptor OX1R and/or OX2R antagonists may be readily determined without undue experimentation by methodology well known in the art, including the “FLIPR Ca^2+ Flux Assay” (Okumura et al., Biochem. Biophys. Res. Comm. 280:976-981, 2001). In a typical experiment the OX1 and OX2 receptor antagonistic activity of the compounds of the present invention was determined in accordance with the following experimental method. For intracellular calcium measurements, Chinese hamster ovary (CHO) cells expressing the rat orexin-1 receptor or the human orexin-2 receptor, are grown in Iscove's modified DMEM containing 2 mM L-glutamine, […], 1% hypoxanthine-thymidine supplement, 100 U/ml penicillin, 100 μg/ml streptomycin and 10% heat-inactivated fetal calf serum (FCS). The cells are seeded at 20,000 cells/well into Becton-Dickinson black 384-well clear bottom sterile plates coated with poly-D-lysine. All reagents were from GIBCO-Invitrogen Corp. The seeded plates are incubated overnight at 37° C. and 5% CO2. Ala-6,12 human orexin-A as the agonist is prepared as a 1 mM stock solution in 1% bovine serum albumin (BSA) and diluted in assay buffer (HBSS containing 20 mM HEPES, 0.1% BSA and 2.5 mM probenecid, pH7.4) for use in the assay at a final concentration of 70 pM. Test compounds are prepared as 10 mM stock solution in DMSO, then diluted in 384-well plates, first in DMSO, then assay buffer. On the day of the assay, cells are washed 3 times with 100 μl assay buffer and then incubated for 60 min (37° C., 5% CO2) in 60 μl assay buffer containing 1 μM Fluo-4AM ester, 0.02% pluronic acid, and 1% BSA. The dye loading solution is then aspirated and cells are washed 3 times with 100 μl assay buffer. 30 μl of that same buffer is left in each well. Within the Fluorescent Imaging Plate Reader (FLIPR, Molecular Devices), test compounds are added to the plate in a volume of 25 μl, incubated for 5 min and finally 25 μl of agonist is added. Fluorescence is measured for each well at 1 second intervals for 5 minutes and the height of each fluorescence peak is compared to the height of the fluorescence peak induced by 70 pM Ala-6,12 orexin-A with buffer in place of antagonist. For each antagonist, IC50 value (the concentration of compound needed to inhibit 50% of the agonist response) is determined. Alternatively, compound potency can be assessed by a radioligand binding assay (described in Bergman et. al. Bioorg. Med. Chem. Lett. 2008, 18, 1425-1430) in which the inhibition constant (Ki) is determined in membranes prepared from CHO cells expressing either the OX1 or OX2 receptor. The intrinsic orexin receptor antagonist activity of a compound which may be used in the present invention may be determined by these assays.

hOX1R = molecular target: T2, hOX1R (Homo sapiens, UniProt O43613); experiment: FLIPR Ca2+ Flux Assay, CHO cells expressing the orexin-1 receptor; format: cell-based; conditions: agonist 70 pM Ala-6,12 human orexin-A
T2 construct: expressed in transfected cells; host or cells: CHO cells (grown under G418)
T2 sequence (O43613 1-425): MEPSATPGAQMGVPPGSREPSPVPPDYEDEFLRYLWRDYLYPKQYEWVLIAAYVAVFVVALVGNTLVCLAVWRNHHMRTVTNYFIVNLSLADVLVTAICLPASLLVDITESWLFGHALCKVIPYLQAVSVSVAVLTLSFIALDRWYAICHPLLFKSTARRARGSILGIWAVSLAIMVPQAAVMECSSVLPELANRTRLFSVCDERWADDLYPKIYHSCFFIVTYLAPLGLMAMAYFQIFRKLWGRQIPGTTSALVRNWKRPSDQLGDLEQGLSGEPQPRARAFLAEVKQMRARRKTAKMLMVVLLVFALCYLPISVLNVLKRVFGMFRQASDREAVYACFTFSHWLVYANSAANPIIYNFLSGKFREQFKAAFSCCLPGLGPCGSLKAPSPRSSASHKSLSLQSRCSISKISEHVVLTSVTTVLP

SMILES	IC50 [1] [nM]	IC50 (hOX1R) [nM]
Cc1ccnc(O[C@@H]2CC[C@@H](C)N(C(=O)c3ccccc3-n3nccn3)C2)c1 [Example 1, 4-Methyl-2-{[(3R,6R)-6-methyl-1-{[2-(2H-1,2,3-triazol-2-yl)phenyl]carbonyl}piperidin-3-yl]oxy}pyridine]	16	
Cc1ccnc(O[C@@H]2CC[C@@H](C)N(C(=O)c3ccccc3-n3ncnn3)C2)c1 [Example 2, (2-(2H-Tetrazol-2-yl)phenyl)((2R,5R)-2-methyl-5-((4-methylpyridin-2-yl)oxy)piperidin-1-y1)methanone]	17	1480
Cc1ccnc(O[C@@H]2CC[C@@H](C)N(C(=O)c3ccsc3-n3nccn3)C2)c1 [Example 3, 4-methyl-2-{[(3R,6R)-6-methyl-1-{[2-(2H-1,2,3-triazol-2-yl)thiophen-3-yl]carbonyl}piperidin-3-yl]oxy}pyridine]	44	1670
Cc1ccnc(O[C@@H]2CC[C@@H](C)N(C(=O)c3c(F)cccc3-n3nccn3)C2)c1 [Example 4, 2-{[(3R,6R)-1-{[2-fluoro-6-(2H-1,2,3-triazol-2-yl)phenyl]carbonyl}-6-methylpiperidin-3-yl]oxy}-4-methylpyridine]	28	875
Cc1ccnc(O[C@@H]2CC[C@@H](C)N(C(=O)c3ccc(Cl)cc3-n3nccn3)C2)c1 [Example 5, 2-{[(3R,6R)-1-{[4-chloro-2-(2H-1,2,3-triazol-2-yl)phenyl]carbonyl}-6-methylpiperidin-3-yl]oxy}-4-methylpyridine]	29	1620
Cc1ccnc(O[C@@H]2CC[C@@H](C)N(C(=O)c3ccc(F)cc3-n3nccn3)C2)c1 [Example 6, 2-{[(3R,6R)-1-{[4-fluoro-2-(2H-1,2,3-triazol-2-yl)phenyl]carbonyl}-6-methylpiperidin-3-yl]oxy}-4-methylpyridine]	35	2290
Cc1ccnc(O[C@@H]2CC[C@@H](C)N(C(=O)c3ccc(C)cc3-n3nccn3)C2)c1 [Example 7, 4-methyl-2-{[(3R,6R)-6-methyl-1-{[4-methyl-2-(2H-1,2,3-triazol-2-yl)phenyl]carbonyl}piperidin-3-yl]oxy}pyridine]	59	2340
COc1ccc(C(=O)N2C[C@H](Oc3cc(C)ccn3)CC[C@H]2C)c(-n2nccn2)n1 [Example 8, 6-methoxy-3-({(2R,5R)-2-methyl-5-[(4-methylpyridin-2-yl)oxy]piperidin-1-yl}carbonyl)-2-(2H-1,2,3-triazol-2-yl)pyridine]	117	> 10000
Cc1ccnc(O[C@@H]2CC[C@@H](C)N(C(=O)c3ncccc3-n3nccn3)C2)c1 [Example 9, 2-({(2R,5R)-2-methyl-5-[(4-methylpyridin-2-yl)oxy]piperidin-1-yl}carbonyl)-3-(2H-1,2,3-triazol-2-yl)pyridine]	45	1770
Cc1ccnc(O[C@@H]2CC[C@@H](C)N(C(=O)c3ccccc3C3(C#N)CC3)C2)c1 [Example 10, 1-[2-({(2R,5R)-2-methyl-5-[(4-methylpyridin-2-yl)oxy]piperidin-1-yl}carbonyl)phenyl]cyclopropanecarbonitrile]	28	1210
Cc1ccnc(O[C@@H]2CC[C@@H](C)N(C(=O)c3cc(F)ccc3-n3nccn3)C2)c1 [Example 11, 2-{[(3R,6R)-1-{[5-fluoro-2-(2H-1,2,3-triazol-2-yl)phenyl]carbonyl}-6-methylpiperidin-3-yl]oxy}-4-methylpyridine]	32	1050
Cc1ccnc(O[C@@H]2CC[C@@H](C)N(C(=O)c3ccc(F)cc3-c3nc(C)no3)C2)c1 [Example 12, 2-{[(3R,6R)-1-{[4-fluoro-2-(3-methyl-1,2,4-oxadiazol-5-yl)phenyl]carbonyl}-6-methylpiperidin-3-yl]oxy}-4-methylpyridine]	299	9510
Cc1ccnc(O[C@@H]2CC[C@@H](C)N(C(=O)c3cccc(F)c3-n3nccn3)C2)c1 [Example 13, 2-{[(3R,6R)-1-{[3-fluoro-2-(2H-1,2,3-triazol-2-yl)phenyl]carbonyl}-6-methylpiperidin-3-yl]oxy}-4-methylpyridine]	26	964
Cc1ccnc(O[C@@H]2CC[C@@H](C)N(C(=O)c3ccccc3CS(C)(=O)=O)C2)c1 [Example 14, 4-methyl-2-{[(3R,6R)-6-methyl-1-({2-[(methylsulfonyl)methyl]phenyl}carbonyl)piperidin-3-yl]oxy}pyridine]	73	> 10000
COCc1ccccc1C(=O)N1C[C@H](Oc2cc(C)ccn2)CC[C@H]1C [Example 15, 2-{[(3R,6R)-1-{[2-(methoxymethyl)phenyl]carbonyl}-6-methylpiperidin-3-yl]oxy}-4-methylpyridine]	226	> 10000
Cc1ccnc(O[C@@H]2CC[C@@H](C)N(C(=O)c3nccnc3-c3ccccn3)C2)c1 [Example 16, 2-({(2R,5R)-2-methyl-5-[(4-methylpyridin-2-yl)oxy]piperidin-1-yl}carbonyl)-3-pyridin-2-ylpyrazine]	40	3100
Cc1ccnc(O[C@@H]2CC[C@@H](C)N(C(=O)c3cccnc3-n3cc(C)cn3)C2)c1 [Example 17, 3-({(2R,5R)-2-methyl-5-[(4-methylpyridin-2-yl)oxy]piperidin-1-yl}carbonyl)-2-(4-methyl-1H-pyrazol-1-yl)pyridine]	33	1750
Cc1ccnc(O[C@@H]2CC[C@@H](C)N(C(=O)c3ncccc3-c3noc(C)n3)C2)c1 [Example 18, 2-({(2R,5R)-2-methyl-5-[(4-methylpyridin-2-yl)oxy]piperidin-1-yl}carbonyl)-3-(5-methyl-1,2,4-oxadiazol-3-yl)pyridine]	106	7030
Cc1ccnc(O[C@@H]2CC[C@@H](C)N(C(=O)c3ccccc3-c3ncccn3)C2)c1 [Example 19, ((2R,5R)-2-methyl-5-((4-methylpyridin-2-yl)oxy)piperidin-1-yl)(2-(pyrimidin-2-yl)phenyl)methanone]	27	980
Cc1ccnc(O[C@@H]2CC[C@@H](C)N(C(=O)c3ccc(F)cc3-c3ncccn3)C2)c1 [Example 20, 2-[5-fluoro-2-({(2R,5R)-2-methyl-5-[(4-methylpyridin-2-yl)oxy]piperidin-1-yl}carbonyl)phenyl]pyrimidine]	42	1580
Cc1ccnc(O[C@@H]2CC[C@@H](C)N(C(=O)c3ccsc3-c3ncccn3)C2)c1 [Example 21, 2-[3-({(2R,5R)-2-methyl-5-[(4-methylpyridin-2-yl)oxy]piperidin-1-yl}carbonyl)thiophen-2-yl]pyrimidine]	69	2110
